Experimental data published in patent US20250381269A1, “BISPECIFIC ANTIBODY BINDING EGFR AND B7-H3” (FORTVITA BIOLOGICS (SINGAPORE) PTE. LTD., priority 2022, published 2025).

Columns and labels:
[1] = system: NCI-H358 tumor-bearing mice; assay: Anti-tumor efficacy in NCI-H358 tumor-bearing mice, combination with AMG510; format: in vivo, NOG mice
Protocol: SPF female NOG mice (purchased from Beijing Vital River Laboratory Animal Technology Co., Ltd.) with certificate No. 1100112211001153625 were used in the experiment.
NCI-H358 cells were routinely subcultured for the subsequent in-vivo experiment. The cells were collected by centrifugation. Then the NCI-H358 cells were resuspended in an equal-proportion mixture of PBS (1×) and Matrigel Matrix (Corning) to prepare a cell suspension with a cell concentration of 25×10^6 cells/mL. On day 0, 0.2 mL of the cell suspension was taken and subcutaneously inoculated to the right abdominal area of NOG mice to establish NCI-H358 tumor-bearing mouse models.
Six days after the tumor cell inoculation, the tumor volume in each mouse was measured. The mice were grouped (with 7 mice in each group).
Administration was performed on days 6, 9, 12, and 15 after the inoculation of NCI-H358 cells. Mice were monitored for tumor volume and body weight twice a week. […] Mice were monitored for tumor volume twice a week, and were monitored for body weight every day during the administration, and twice a week after the end of administration. […] On day 33 after the inoculation, the relative tumor growth inhibition (TG1%) was calculated by the following formula: TG1%=100%×(control group tumor volume−treatment group tumor volume)/(control group tumor volume−control group tumor volume before administration).
Tumor volume measurement: The maximum length of major axis (L) and maximum length of minor axis (W) of tumors were measured with a vernier caliper, and tumor volume was calculated by the following formula: V=L×W^2/2. The mice were weighed using an electronic balance.

[2] = system: LS180 (EGFR^R521K, KRAS^G12D) CRC tumor cell line; assay: Proliferation inhibition experiment, LS180, combination with MRTX1133; format: cell-based; conditions: 15.62 nM MRTX1133, read as without bsAb (starting value of the increase)
Protocol: • (1) NSCLC (H358) (Cobioer, CBP60136) and CRC (LS180) (Cobioer, CBP60034): plated at 1500-2500 cells/100 μL in a 96-well low-adsorption plate (Corning, CLS7007-24EA) for 3D cell culture. • (2) The antibody molecules and small molecule inhibitors prepared in advance by dilution were added to the corresponding cell well plate, mixed well, and cultured at 37° C. with 5% CO2 for 5 days. • (3) After 5 days of continuous culture for proliferation inhibition assay, the Cell-Titer reagent (Promega, G7572) prepared in advance was added to cell wells, and the plate was left to stand at room temperature for 15-25 min in the dark. • (4) Cell-Titer and the above cell mixture were transferred to a 96-well white-bottom plate (NUNC, 136101) and detected by a multimode microplate reader (Molecular Devices, Spectra MAXi3).

SK-MES-1 = assay: Proliferation inhibition experiment, SK-MES-1 (NSCLC); format: cell-based; conditions: TKI highest concentration 1000 nM
Protocol: (§1) • (1) NSCLC: plated at 1500-2500 cells/100 μL in a 96-well low-adsorption plate (Corning, CLS7007-24EA) for 3D cell culture, in which the following cell lines and specific amounts were used: • NSCLC: 2000 cells/100 μL/well • NCI-H292: Cell Bank of the Chinese Academy of Sciences, SCSP-582 • NCI-H322: Cobioer, CBP60134 • NCI-H1650: ATCC, CRL-5883 • NCI-H1975: ATCC, CRL-5908 • SK-MES-1: CoBioer, CBP60152 • NCI-H1703: ATCC, HTB-43 • PC9+hB7H3: constructed as described above • CRC and HNSCC: plated at 1500-2000 cells/100 μL in a 96-well white-bottom plate (NUNC, 136101) for 2D cell culture, in which the following cell lines and specific amounts were used: • CRC: 1500 cells/100 μL/well • CCK-81: CoBioer, CBP60581 • HT-55: CoBioer, CBP60012 • H508: CoBioer, CBP60795 • LS180: CoBioer, CBP60034 • HNSCC: 1500 cells/100 μL/well • TE-1: CoBioer, CBP60655 • Colo680: CoBioer, CBP60452. (2) The antibody molecules prepared in advance by dilution were added to the corresponding cell well plate, mixed well, and cultured in an incubator at 37° C. with 5% CO2 for 5 days. • (3) After 5 days of continuous culture for proliferation inhibition assay, the Cell-Titer reagent (Promega, G7572) prepared in advance was added to cell wells, the plate was left to stand at room temperature for 15-25 min in the dark, and then CRC and HNSCC cells were directly detected by a multimode microplate reader (Molecular Devices, Spectra MAXi3). • (4) NSCLC: Cell-Titer and the cell mixture were transferred to a 96-well white-bottom plate (NUNC, 136101) and detected by a multimode microplate reader (Molecular Devices, Spectra MAXi3).

H1703 = assay: Proliferation inhibition experiment, H1703 (NSCLC); format: cell-based; conditions: NCI-H1703; TKI highest concentration 1000 nM
Protocol: as §1

| Compound | sensitivity of the cell line to EGFR-TKI, in words (SK-MES-1) | sensitivity of the cell line to EGFR-TKI, in words (H1703) | also measured |
| --- | --- | --- | --- |
| C=CC(=O)N1CCN(c2nc(=O)n(-c3c(C)ccnc3C(C)C)c3nc(-c4c(O)cccc4F)c(F)cc23)[C@@H](C)C1 [AMG510, sotorasib] |  |  | Tumor volume (mm^3) ([1]; NCI-H358, NOG mice, antibodies 10 mg/kg i.p. Q3-4D x4 (h-IgG 20 mg/kg), AMG510 10 mg/kg intragastric QD x14, day 33): 180 mm^3; Tumor growth inhibition (%) ([1]; NCI-H358, NOG mice, antibodies 10 mg/kg i.p. Q3-4D x4, AMG510 10 mg/kg intragastric QD x14, day 33, vs h-IgG 20 mg/kg): 89%; body weight of mice ([1]; NCI-H358 tumor-bearing NOG mice, during administration and on day 33): caused a gradual decrease in the body weight of mice |
| C#Cc1c(F)ccc2cc(O)cc(-c3ncc4c(N5CC6CCC(C5)N6)nc(OC[C@@]56CCCN5C[C@H](F)C6)nc4c3F)c12 [MRTX1133] |  |  | anti-LS180 tumor efficacy [2]: 36.45% |
| C#Cc1cccc(Nc2ncnc3cc(OCCOC)c(OCCOC)cc23)c1 [erlotinib] | resistant and not sensitive | resistant and not sensitive |  |
| C=CC(=O)Nc1cc(Nc2nccc(-c3cn(C)c4ccccc34)n2)c(OC)cc1N(C)CCN(C)C [osimertinib] | resistant and not sensitive | resistant and not sensitive |  |
